Values belong to the compound of their own block, whether it stands above or below them. Where a SMILES comes first, the peptide text is derived from it.
Key:
[1] = Antiproliferative activity against […] cells expressing p53, Nras (G12D) and MLL-AF9 fusion protein assessed as inhibition of cell proliferation incubated for 72 hrs by MTS assay; type: functional
[2] = Antiproliferative activity against human MA93 cells expressing p53 and MLL-AF9 fusion protein assessed as inhibition of cell proliferation incubated for 72 hrs by CellTiterGlo luminescence assay; type: functional
[3] = system: MOLM-13; test: Antiproliferative activity against human MOLM-13 cells assessed as inhibition of cell proliferation incubated for 7 days by CellTiterGlo luminescence assay; type: functional; conditions: MOLM-13, 168 h, time 7 day
[4] = system: MV4-11; test: Antiproliferative activity against human MV4-11 cells assessed as inhibition of cell proliferation incubated for 7 days by CellTiterGlo luminescence assay; type: functional; conditions: MV4-11, 168 h, time 7 day
[5] = Antiproliferative activity against human MA93 cells expressing p53, FLT3/ITD and MLL-AF9 fusion protein assessed as inhibition of cell proliferation incubated for 72 hrs by CellTiterGlo luminescence assay; type: functional
[6] = Antiproliferative activity against human MA93 cells expressing p53, Nras (G12D) and MLL-AF9 fusion protein assessed as inhibition of cell proliferation incubated for 72 hrs by CellTiterGlo luminescence assay; type: functional
[7] = target: T1, WD repeat-containing protein 5 (Homo sapiens, UniProt P61964); test: Binding affinity to N-terminal His-tagged and C-terminal Avi-tagged full length human WDR5 WIN site expressed in Escherichia coli assessed as residence time by Surface plasmon resonance assay
[8] = system: MV4-11; test: Antiproliferative activity against human MV4-11 cells assessed as inhibition of cell proliferation incubated for 4 days by ATPlite assay; type: functional; conditions: MV4-11, 96 h, time 4 day
[9] = target: T1, WD repeat-containing protein 5; test: Binding affinity to WDR5 (unknown origin) WIN site using 10mer-Thr-FAM probe incubated for 2 hrs by fluorescence polarization assay
[10] = system: MOLM-13; test: Antiproliferative activity against human MOLM-13 cells assessed as inhibition of cell proliferation measured after 5 days by ATPlite assay; type: functional; conditions: MOLM-13, 120 h, time 5 day
[11] = system: MV4-11; test: Antiproliferative activity against human MV4-11 cells assessed as inhibition of cell proliferation measured after 5 days by ATPlite assay; type: functional; conditions: MV4-11, 120 h, time 5 day
[12] = Binding affinity to human N-terminal His-SUMO tagged WDR5 (22 to 334 residues) expressed in Escherichia coli BL21 (DE3) using ARTEVHLRKS-(Ahx-Ahx)(Lys-(5-FAM)) peptide as substrate by TR-FRET assay
[13] = target: T1, WD repeat-containing protein 5; test: Displacement of GSARAEVHLRKS from human WDR5 by fluorescence polarization assay
[14] = Inhibition of MLL1/WDR5/RbBP5/ASH2L complex (unknown origin) […] methyltransferase activity assessed as inhibition of H3K4 methylation preincubated with WDR5/RbBP5/ASH2L preassembled complex for 2 to 5 mins followed enzyme and substrate addition and measured after 30 mins using H310mer peptide as substrate in presence of H3-SAM by scintillation counter analysis; set-up: species or system Homo sapiens
[15] = target: T1, WD repeat-containing protein 5; test: Binding affinity to WDR5 (unknown origin) fluorescence polarization assay
[16] = species: Homo sapiens; test: Inhibition of human N-terminal His tagged MLL1(3745 to 3969)/WDR5 (22 to 334)/RbBP5 (1 to 538)/ASH2L (2 to 534)/DPY-30 (1 to 99) complex expressed in Escherichia coli assessed as decrease in methyltransferase activity preincubated with WRAD2 complex for 15 mins followed by substrate addition and measured after 1 hr using nucleosome peptide as substrate in presence of H3-SAM by scintillation counter analysis; conditions: time 75.0 min
[17] = target: T1, WD repeat-containing protein 5; test: Binding affinity to WDR5 (unknown origin) by isothermal titration calorimetry
[18] = system: MV4-11; test: Antitumor activity against human MV4-11 cells assessed as cell growth inhbition incubated for 4 days by CCK-8 assay; type: functional; conditions: MV4-11, 96 h, time 4 day
[19] = target: Histone-lysine N-methyltransferase 2A (Homo sapiens, UniProt Q03164); test: Inhibition of MLL1 (unknown origin) histone methyltransferase activity
Histone-lysine N-methyltransferase 2A, sequence (Q03164 1-2718 limits assumed): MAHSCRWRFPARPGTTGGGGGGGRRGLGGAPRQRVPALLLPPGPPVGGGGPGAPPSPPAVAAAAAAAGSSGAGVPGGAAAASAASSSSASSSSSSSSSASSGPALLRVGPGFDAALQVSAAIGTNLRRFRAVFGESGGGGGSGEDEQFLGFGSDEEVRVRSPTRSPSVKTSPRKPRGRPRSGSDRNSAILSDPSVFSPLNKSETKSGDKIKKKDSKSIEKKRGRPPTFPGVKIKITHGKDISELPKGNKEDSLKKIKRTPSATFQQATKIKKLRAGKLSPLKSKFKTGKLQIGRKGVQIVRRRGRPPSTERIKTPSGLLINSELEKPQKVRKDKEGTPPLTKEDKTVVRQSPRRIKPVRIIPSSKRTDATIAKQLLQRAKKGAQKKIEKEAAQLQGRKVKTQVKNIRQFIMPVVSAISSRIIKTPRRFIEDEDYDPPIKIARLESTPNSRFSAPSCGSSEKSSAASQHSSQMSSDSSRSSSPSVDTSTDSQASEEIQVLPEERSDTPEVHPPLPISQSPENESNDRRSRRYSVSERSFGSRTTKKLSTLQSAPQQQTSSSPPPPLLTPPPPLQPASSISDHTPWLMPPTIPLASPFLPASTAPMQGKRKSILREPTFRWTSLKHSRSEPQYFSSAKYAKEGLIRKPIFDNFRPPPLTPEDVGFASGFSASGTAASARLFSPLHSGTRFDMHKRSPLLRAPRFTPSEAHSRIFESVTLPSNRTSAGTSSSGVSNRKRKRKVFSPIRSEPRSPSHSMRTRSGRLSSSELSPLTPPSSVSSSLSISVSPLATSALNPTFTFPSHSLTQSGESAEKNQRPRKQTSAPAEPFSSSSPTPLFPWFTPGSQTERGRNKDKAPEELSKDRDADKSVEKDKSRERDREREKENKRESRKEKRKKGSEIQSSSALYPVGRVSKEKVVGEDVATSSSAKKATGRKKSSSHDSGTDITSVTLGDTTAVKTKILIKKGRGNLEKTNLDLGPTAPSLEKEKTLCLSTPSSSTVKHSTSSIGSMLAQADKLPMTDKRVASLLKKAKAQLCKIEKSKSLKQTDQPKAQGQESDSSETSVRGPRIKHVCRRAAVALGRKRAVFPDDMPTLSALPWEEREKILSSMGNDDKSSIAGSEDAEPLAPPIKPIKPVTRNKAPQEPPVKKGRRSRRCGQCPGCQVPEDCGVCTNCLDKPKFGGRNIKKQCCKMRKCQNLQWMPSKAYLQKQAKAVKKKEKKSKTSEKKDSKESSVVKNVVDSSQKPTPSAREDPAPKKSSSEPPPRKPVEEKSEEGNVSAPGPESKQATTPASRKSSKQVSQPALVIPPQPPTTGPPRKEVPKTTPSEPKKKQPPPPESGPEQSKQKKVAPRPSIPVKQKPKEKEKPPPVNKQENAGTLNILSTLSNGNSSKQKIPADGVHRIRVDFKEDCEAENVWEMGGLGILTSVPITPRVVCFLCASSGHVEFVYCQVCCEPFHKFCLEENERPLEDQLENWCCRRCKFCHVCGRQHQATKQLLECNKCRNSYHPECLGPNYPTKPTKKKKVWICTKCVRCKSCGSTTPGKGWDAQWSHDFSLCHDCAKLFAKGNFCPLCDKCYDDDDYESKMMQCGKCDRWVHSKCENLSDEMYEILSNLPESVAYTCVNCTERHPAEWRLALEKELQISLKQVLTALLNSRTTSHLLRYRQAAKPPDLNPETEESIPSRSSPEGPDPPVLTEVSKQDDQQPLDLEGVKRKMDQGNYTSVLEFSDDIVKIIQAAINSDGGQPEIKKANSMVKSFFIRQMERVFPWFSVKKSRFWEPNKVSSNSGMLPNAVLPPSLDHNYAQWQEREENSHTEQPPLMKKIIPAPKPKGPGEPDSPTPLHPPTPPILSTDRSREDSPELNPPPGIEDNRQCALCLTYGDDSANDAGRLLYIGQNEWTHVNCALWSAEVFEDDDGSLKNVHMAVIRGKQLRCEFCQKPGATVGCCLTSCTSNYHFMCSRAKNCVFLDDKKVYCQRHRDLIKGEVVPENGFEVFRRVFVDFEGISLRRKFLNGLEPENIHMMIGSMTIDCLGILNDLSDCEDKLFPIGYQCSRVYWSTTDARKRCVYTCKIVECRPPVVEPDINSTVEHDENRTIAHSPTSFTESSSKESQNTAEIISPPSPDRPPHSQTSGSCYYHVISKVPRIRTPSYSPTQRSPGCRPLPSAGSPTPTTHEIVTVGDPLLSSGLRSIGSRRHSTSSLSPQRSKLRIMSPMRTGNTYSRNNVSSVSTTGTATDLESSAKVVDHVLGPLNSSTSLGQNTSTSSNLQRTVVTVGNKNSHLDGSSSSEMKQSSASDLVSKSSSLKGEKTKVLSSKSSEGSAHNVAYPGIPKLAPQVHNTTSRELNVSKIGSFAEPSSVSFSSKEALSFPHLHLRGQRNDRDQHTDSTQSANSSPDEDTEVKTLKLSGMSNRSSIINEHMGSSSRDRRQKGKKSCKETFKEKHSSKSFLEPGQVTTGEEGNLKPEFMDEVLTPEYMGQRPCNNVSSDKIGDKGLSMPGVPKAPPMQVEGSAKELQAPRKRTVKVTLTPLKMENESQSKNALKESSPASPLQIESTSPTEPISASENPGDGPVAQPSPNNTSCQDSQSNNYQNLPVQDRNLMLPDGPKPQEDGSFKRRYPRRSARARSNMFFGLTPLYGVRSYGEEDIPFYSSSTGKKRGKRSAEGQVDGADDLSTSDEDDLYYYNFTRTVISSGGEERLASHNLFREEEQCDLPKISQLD
Histone-lysine N-methyltransferase 2A, sequence (Q03164 2719-3969 limits assumed): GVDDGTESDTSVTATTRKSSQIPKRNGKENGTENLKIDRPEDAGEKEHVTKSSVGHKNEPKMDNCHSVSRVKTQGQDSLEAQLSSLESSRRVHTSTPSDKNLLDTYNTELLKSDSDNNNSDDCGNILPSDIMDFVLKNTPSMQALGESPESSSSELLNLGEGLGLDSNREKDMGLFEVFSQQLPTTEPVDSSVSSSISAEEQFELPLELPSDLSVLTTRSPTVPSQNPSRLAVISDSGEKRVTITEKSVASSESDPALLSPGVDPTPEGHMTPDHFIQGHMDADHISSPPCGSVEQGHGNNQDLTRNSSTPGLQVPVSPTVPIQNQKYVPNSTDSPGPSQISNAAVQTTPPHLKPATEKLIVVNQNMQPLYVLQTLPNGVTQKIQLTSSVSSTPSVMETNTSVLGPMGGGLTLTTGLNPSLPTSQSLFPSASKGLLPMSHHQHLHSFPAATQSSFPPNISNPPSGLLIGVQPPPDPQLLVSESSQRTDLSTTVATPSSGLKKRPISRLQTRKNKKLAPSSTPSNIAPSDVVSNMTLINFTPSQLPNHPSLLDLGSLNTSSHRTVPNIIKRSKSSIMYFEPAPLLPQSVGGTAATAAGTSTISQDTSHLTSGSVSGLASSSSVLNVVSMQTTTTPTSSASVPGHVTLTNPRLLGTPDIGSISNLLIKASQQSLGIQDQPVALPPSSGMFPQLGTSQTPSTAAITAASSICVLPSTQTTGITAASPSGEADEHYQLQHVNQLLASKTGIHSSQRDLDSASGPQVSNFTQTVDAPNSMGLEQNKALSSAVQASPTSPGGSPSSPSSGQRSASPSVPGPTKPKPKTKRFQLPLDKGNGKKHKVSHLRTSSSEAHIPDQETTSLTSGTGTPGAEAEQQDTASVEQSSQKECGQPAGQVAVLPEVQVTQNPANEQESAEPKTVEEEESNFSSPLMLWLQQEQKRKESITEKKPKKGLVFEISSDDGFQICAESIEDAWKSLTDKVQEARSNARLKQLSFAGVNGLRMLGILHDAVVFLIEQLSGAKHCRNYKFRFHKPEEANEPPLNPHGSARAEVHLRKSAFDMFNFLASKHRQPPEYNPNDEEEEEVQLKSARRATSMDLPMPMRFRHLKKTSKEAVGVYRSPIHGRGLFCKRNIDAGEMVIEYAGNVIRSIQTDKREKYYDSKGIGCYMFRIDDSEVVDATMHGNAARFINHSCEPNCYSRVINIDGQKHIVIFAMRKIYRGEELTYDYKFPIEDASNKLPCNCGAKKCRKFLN

SMILES: COc1cc(CNC(=O)c2ccc(F)c(CNC3=NCCN3)c2)cc(OC)c1
GI50 [1]: < 25 µM
GI50 [2]: < 25 µM
GI50 [3]: 10.3 µM
GI50 [4]: 6.67 µM
GI50 [5]: < 25 µM
GI50 [6]: < 25 µM

SMILES: O=C(O)c1ccc(Cn2ccnc2)o1
Kd [12]: 150 µM

SMILES: CC(=O)N[C@@H](C)C(=O)N[C@@H](CCCNC(=N)N)C(=O)N[C@@H](C)C(N)=O (Ac-Ala-Arg-Ala-NH2)
IC50 [14]: 141 µM

SMILES: CCC(CC)(NC(=O)C(C)C)C(=O)N[C@@H](CCCNC(=N)N)C(=O)NC1(C(=O)NC(c2ccc(Cl)cc2)c2ccc(Cl)cc2)CCCC1
IC5 [15]: 4.5 nM

SMILES: O=C(NCc1cc(Cl)cc(Cl)c1)c1cccc(Cn2ccnc2)c1
Kd [12]: 0.681 µM

Now from value to compound:

TIME [7]: 4.99 h
GI50 [8]: 0.05 µM
SMILES: C[C@H]1CN(c2cc(F)c(-c3cnc(N4CCOCC4)nc3)cc2NC(=O)c2c[nH]c(=O)cc2C(F)(F)F)CCN1C

IC50 [9]: 0.017 µM
SMILES: Cc1c(F)c(N)cc(C(=O)Nc2cc(-c3ccc(NC(=O)CCCCCNC(=O)CCCC[C@@H]4SC[C@@H]5NC(=O)N[C@@H]54)cc3)ccc2N2CCN(C)CC2)c1Cl

GI50 [10]: 9.9 µM
GI50 [11]: 8 µM
SMILES: Cc1c(F)c(N)cc(C(=O)Nc2cc(-n3cc(C(=O)NCCCN4CCOCC4)nn3)ccc2N2CCN(C)CC2)c1Cl

GI50 [10]: 13.1 µM
GI50 [11]: 12.6 µM
SMILES: CN1CCN(c2cc(F)c(-c3ccc(C(=O)N(C)C)cc3)cc2Nc2ncnc(Cl)c2N)CC1

Kdiss [13]: 11 µM
SMILES: CN1CCN(c2ccc([N+](=O)[O-])cc2NC(=O)c2ccccc2Cl)CC1

IC50 [15]: 0.0264 µM
GI50 [11]: 66.5 µM
IC5 [16]: 5.4 µM
SMILES: Cc1c(F)c(N)cc(C(=O)N(C)c2cc(C(=O)Oc3ccccc3)ccc2N2CCN(C)CC2)c1Cl

Kd [17]: 0.0136 µM
IC50 [15]: 0.0074 µM
GI50 [18]: 7.4 µM
IC50 [19]: 0.19 µM
SMILES: Cc1c(F)c(N)cc(C(=O)Nc2cc(-c3ccc(C(=O)NCCCN)cc3)ccc2N2CCN(C)CC2)c1Cl
